Each structure is given as a SMILES string.

For orientation: IC50 means the concentration that inhibits the measured activity by half.

HIF PHD2, sequence (Q9GZT9 whole entry): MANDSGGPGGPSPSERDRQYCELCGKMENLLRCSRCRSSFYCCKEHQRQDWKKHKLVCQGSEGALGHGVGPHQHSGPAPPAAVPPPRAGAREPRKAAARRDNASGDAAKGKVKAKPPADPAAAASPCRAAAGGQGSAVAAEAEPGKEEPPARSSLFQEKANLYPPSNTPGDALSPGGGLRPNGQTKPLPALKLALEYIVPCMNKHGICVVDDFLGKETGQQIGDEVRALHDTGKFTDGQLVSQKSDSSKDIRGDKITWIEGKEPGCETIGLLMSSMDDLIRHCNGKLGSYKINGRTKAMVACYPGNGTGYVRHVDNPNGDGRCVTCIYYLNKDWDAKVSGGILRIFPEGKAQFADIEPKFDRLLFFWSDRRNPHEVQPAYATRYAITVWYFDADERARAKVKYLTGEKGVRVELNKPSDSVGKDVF

In this test the target is HIF PHD2 (Homo sapiens, UniProt Q9GZT9). Briefly: PHD2 inhibition assay (TR-FRET, VCB-Eu detection of hydroxylated P564-HIF1α peptide). Format: biochemical. The conditions noted are these: 2 nM PHD2, 100 nM P564-HIF1α peptide, 0.25 μM 2-oxoglutarate, 100 μM FeCl2, pH 6, TR-FRET. The procedure:
Inhibition of HIF PHD2 activity was quantified utilizing the TR-FRET technology. HIF PHD2 catalyzes a hydroxyl modification on the proline residue of the P564-HIF1α peptide substrate (Biotin-DLEMLAPYIPMDDDFQL (SEQ ID NO: 7)) resulting in recognition and binding of the europylated Von Hippel-Lindau protein (pVHL), elongin B and elongin C heterotrimeric (VCB-Eu) complex.
The PHD2 inhibition assay was executed by addition of freshly dissolved FeCl2 to 178.57 μM (100 μM final concentration) in PHD2 Reaction Buffer containing 30 mM MES, pH 6, 10 mM NaCl, 0.25% Brij-35, 0.01% BSA, and 1% DMSO. 28 μL of the iron solution and 2 μL of inhibitor compounds serially diluted in 100% DMSO (5% DMSO final) were added to black polypropylene 96-well microtiter plates. To that, 10 μL of 10 nM PHD2 (2 nM final) was added to all wells of the plate except for the 8 wells of column 12 (LO control), and allowed to incubate at room temperature on the shaker for one hour. Column 6 was the HI control containing PHD2 enzyme and 5% DMSO vehicle, but no inhibitor compound. To initiate the PHD2 enzymatic reaction, 10 μL of a solution containing 500 nM P564-HIF1α peptide (100 nM final), 10 mM ascorbic acid (2 mM final), and 1.25 μM 2-oxoglutarate (α-ketoglutarate; 0.25 μM final) in PHD2 Reaction Buffer was added to all wells of the plate and allowed to incubate on the shaker at room temperature for one hour.
The reaction was terminated by addition of 25 μL TR-FRET Buffer (50 mM TRIS-HCl, pH 9, 100 mM NaCl, 0.05% BSA, and 0.5% Tween-20) containing 150 mM succinate (product inhibitor; 50 mM final), 75 nM streptavidin-APC (25 nM final), and 7.5 nM VCB-Eu (2.5 nM final). The TR-FRET detection reagents were placed on a shaker for 1 hour to reach binding equilibrium before reading on the Discovery platform (PerkinElmer). Europium is excited at 315 nm and phosphoresces at 615 nm with a large Stoke's shift. APC, in turn, emits at 655 nm upon excitation at 615 nm. The TR-FRET signal is measured as the ratio of the APC 655 nm signal divided by the internal europium reference 615 nm emission signal.
The POC (percentage of control) was determined by comparing the signal from hydroxylated peptide substrate in the enzyme reaction containing inhibitor compound with that from PHD2 enzyme with DMSO vehicle alone (HI control), and no enzyme (LO control). POC was calculated using the formula: % control (POC)=(cpd−average LO)/(average HI−average LO)*100. Data (consisting of POC and inhibitor concentration in μM) was fitted to a 4-parameter equation (y=A+((B−A)/(1+((x/C)^D))), where A is the minimum y (POC) value, B is the maximum y (POC), C is the x (cpd concentration) at the point of inflection and D is the slope factor) using a Levenburg-Marquardt non-linear regression algorithm.
(In general: In TR-FRET formats the signal depends on donor and acceptor labels being close together.)
For the compound `COc1ccc(-c2ccc3c(c2)C(O)=C(C(=O)NCC(=O)O)C3=O)cc1` [Example 12, 2-(3-hydroxy-5-(4-methoxyphenyl)-1-oxo-1H-indene-2-carboxamido)acetic acid], the 50% inhibitory concentration (IC50) worked out at 22 nM. That is a double-digit nanomolar value.
Compound `COc1cccc(-c2ccc3c(c2)C(=O)C(C(=O)NCC(=O)O)=C3O)c1` [Example 19, 2-(3-hydroxy-6-(3-methoxyphenyl)-1-oxo-1H-indene-2-carboxamido)acetic acid] came in with an IC50 of 5.5 nM.
Regarding `COc1ccc(-c2cccc3c2C(O)=C(C(=O)NCC(=O)O)C3=O)cc1` [Example 11, 2-(3-hydroxy-4-(4-methoxyphenyl)-1-oxo-1H-indene-2-carboxamido)acetic acid], it took 3.6 nM to reach half-maximal inhibition (IC50). Against the preceding compound, the IC50 is about 1.5-fold lower.
`O=C(O)CNC(=O)C1=C(O)c2c(cccc2-c2ccccc2)C1=O` [Example 9, 2-(3-hydroxy-1-oxo-7-phenyl-1H-indene-2-carboxamido)acetic acid] had an IC50 of 2.8 nM.
For `O=C(O)CNC(=O)C1=C(O)c2c(I)cccc2C1=O` [Example 1, 2-(3-hydroxy-4-iodo-1-oxo-1H-indene-2-carboxamido)acetic acid], the IC50 came out at 22.5 nM.
As for `COc1ccccc1-c1cccc2c1C(=O)C(C(=O)NCC(=O)O)=C2O` [Example 16, 2-(3-hydroxy-7-(2-methoxyphenyl)-1-oxo-1H-indene-2-carboxamido)acetic acid], 22.1 nM corresponded to half-maximal inhibition (IC50).
With `O=C(O)CNC(=O)C1=C(O)c2c(cccc2-c2cccc(Cl)c2)C1=O` [Example 14, 2-(4-(3-chlorophenyl)-3-hydroxy-1-oxo-1H-indene-2-carboxamido)acetic acid] the figure was 3 nM; with `O=C(O)CNC(=O)C1=C(O)c2ccc(-c3ccccc3)cc2C1=O` [Example 10, 2-(3-hydroxy-1-oxo-6-phenyl-1H-indene-2-carboxamido)acetic acid], 11.6 nM.
`O=C(O)CNC(=O)C1=C(O)c2c(cccc2-c2ccc(Cl)cc2)C1=O` [Example 13, 2-(4-(4-chlorophenyl)-3-hydroxy-1-oxo-1H-indene-2-carboxamido)acetic acid] displayed an IC50 of 3.8 nM.
`O=C(O)CNC(=O)C1=C(O)c2c(cccc2-c2ccccc2Cl)C1=O` [Example 15, 2-(4-(2-chlorophenyl)-3-hydroxy-1-oxo-1H-indene-2-carboxamido)acetic acid] showed an IC50 of 8.5 nM.
Regarding `O=C(O)CNC(=O)C1=C(O)c2cc(C(F)(F)F)ccc2C1=O` [Example 3, 2-(3-hydroxy-1-oxo-5-(trifluoromethyl)-1H-indene-2-carboxamido)acetic acid], the 50% inhibitory concentration (IC50) was 13 nM.
Turning to `O=C(O)CNC(=O)C1=C(O)c2c(Cl)ccc(Cl)c2C1=O` [Example 8, 2-(4,7-dichloro-3-hydroxy-1-oxo-1H-indene-2-carboxamido)acetic acid], the midpoint of inhibition, the IC50, lay at 47.2 nM.
The same measure for `O=C(O)CNC(=O)C1=C(O)c2cc(Br)ccc2C1=O` [Example 2, 2-(5-bromo-3-hydroxy-1-oxo-1H-indene-2-carboxamido)acetic acid]: 20.6 nM; for `O=C(O)CNC(=O)C1=C(O)c2c(Cl)cccc2C1=O` [Example 4, 2-(4-chloro-3-hydroxy-1-oxo-1H-indene-2-carboxamido)acetic acid]: 9.5 nM; for `O=C(O)CNC(=O)C1=C(O)c2c(F)cccc2C1=O` [Example 7]: 25.5 nM.
For `O=C(O)CNC(=O)C1=C(O)c2cc(F)ccc2C1=O` [Example 6, 2-(6-fluoro-3-hydroxy-1-oxo-1H-indene-2-carboxamido)acetic acid], the IC50 turned out to be 50.1 nM.
Regarding `O=C(O)CNC(=O)C1=C(O)c2ccc(-c3ccccc3Cl)cc2C1=O` [Example 18, 2-(6-(2-chlorophenyl)-3-hydroxy-1-oxo-1H-indene-2-carboxamido)acetic acid], it took 3.6 nM to reach half-maximal inhibition (IC50). Against the preceding compound, the IC50 is about 14-fold lower.
On to `COc1cccc(-c2cccc3c2C(=O)C(C(=O)NCC(=O)O)=C3O)c1` [Example 17, 2-(3-hydroxy-7-(3-methoxyphenyl)-1-oxo-1H-indene-2-carboxamido)acetic acid], for which the IC50 worked out at 3 nM.

For the origin of these results see patent US7569726B2, “Indanone derivatives that inhibit prolyl hydroxylase” (Amgen Inc., priority 2007, dated 2009).
